ChEMBL document CHEMBL1135134, “Novel phthalimide derivatives, designed as leukotriene D(4) receptor antagonists” (Bioorg Med Chem Lett, 2002)
Each block holds one compound with its values, some of them ahead of it.

How the values were obtained:
Cavia porcellus [1] = species on record: Cavia porcellus; assay: Inhibitory contractile effect of compound in guinea-pig tracheal strips induced by LTD4 (100 nM) (% contraction, obtained in the vehicle presence 100.0%); type: functional, Trachea
Cavia porcellus [2] = species on record: Cavia porcellus; assay: Inhibitory contractile effect of compound in guinea-pig tracheal strips induced by LTD4 (100 nM) (% inhibition obtained by comparison with control group); type: functional, Trachea
Cavia porcellus [3] = species on record: Cavia porcellus; assay: 50% inhibitory concentration on the LTD4 (100 nM) induced contraction of guinea-pig tracheal strip bioassay; type: functional; details: Trachea
Cavia porcellus [4] = species on record: Cavia porcellus; assay: Maximum effect on the LTD4 (100 nM) induced contraction of guinea-pig tracheal strips bioassay; type: functional; details: Trachea

Compound: CC(Oc1ccc(CCN2C(=O)c3ccccc3C2=O)cc1)C(=O)O (configuration not stated)
Contraction (Cavia porcellus [1]): 91.4% | Inhibition (Cavia porcellus [2]): 8.6%

Compound: O=C(O)COc1ccc(CCN2C(=O)c3ccccc3C2=O)cc1
Contraction (Cavia porcellus [1]): 101.5% | Inhibition (Cavia porcellus [2]): -1.5%

IC50 (Cavia porcellus [3]): 31.2 µM
Compound: O=C1c2ccccc2C(=O)N1CCc1ccc(OCCCc2nn[nH]n2)cc1
Contraction (Cavia porcellus [1]): 52.4% | Inhibition (Cavia porcellus [2]): 47.6% | Emax (Cavia porcellus [4]): 100%

Compound: O=C(O)CCCOc1ccc(CCN2C(=O)c3ccccc3C2=O)cc1
Contraction (Cavia porcellus [1]): 80.3% | Inhibition (Cavia porcellus [2]): 19.7%

Compound: O=C(O)CCCCOc1ccc(CCN2C(=O)c3ccccc3C2=O)cc1
Contraction (Cavia porcellus [1]): 97.6% | Inhibition (Cavia porcellus [2]): 2.4%

Compound: O=C(O)c1ccc(COc2ccc(CCN3C(=O)c4ccccc4C3=O)cc2)cc1
Contraction (Cavia porcellus [1]): 93.7% | Inhibition (Cavia porcellus [2]): 6.3%

Compound: O=C(O)CCCC(=O)Oc1ccc(CCN2C(=O)c3ccccc3C2=O)cc1
Contraction (Cavia porcellus [1]): 73.9% | Inhibition (Cavia porcellus [2]): 26.1%

IC50 (Cavia porcellus [3]): 0.00103 µM
Compound: COc1cc(C(=O)NS(=O)(=O)c2ccccc2C)ccc1Cc1cn(C)c2ccc(NC(=O)OC3CCCC3)cc12 [ZAFIRLUKAST]
